Assay [1] addresses T1, Peroxisome proliferator-activated receptor alpha (Homo sapiens, UniProt Q07869).
T1 sequence (Q07869 whole entry): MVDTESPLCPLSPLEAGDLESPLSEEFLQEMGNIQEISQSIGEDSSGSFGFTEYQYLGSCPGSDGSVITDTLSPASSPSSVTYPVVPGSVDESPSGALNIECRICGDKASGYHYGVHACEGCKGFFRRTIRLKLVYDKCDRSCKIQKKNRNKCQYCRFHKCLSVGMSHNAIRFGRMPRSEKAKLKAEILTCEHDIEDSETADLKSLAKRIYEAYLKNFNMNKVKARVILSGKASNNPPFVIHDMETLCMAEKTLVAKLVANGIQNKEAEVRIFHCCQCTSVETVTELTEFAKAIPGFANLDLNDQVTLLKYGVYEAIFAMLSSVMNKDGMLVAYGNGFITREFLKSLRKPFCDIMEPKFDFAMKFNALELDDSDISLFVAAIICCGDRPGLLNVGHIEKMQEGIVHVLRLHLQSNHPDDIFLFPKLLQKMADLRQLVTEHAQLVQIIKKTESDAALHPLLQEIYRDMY
The assay can be described thus: Inhibition of PPAR-alpha (unknown origin) by SPA assay.

In assay [2] the target is T1, Peroxisome proliferator-activated receptor alpha. The assay can be described thus: Binding affinity to PPAR-alpha (unknown origin) by fluorescence-based assay.

A word on the IC50: it is the concentration at which inhibition is half-maximal. The low end stands for greater potency in that assay, the high end for weaker potency in that assay. By Kd is commonly meant a measure of binding affinity in units of concentration. A low value points to higher affinity.

`CCCCC/C=C\C/C=C\C/C=C\C/C=C\CCCC(=O)O` [ARACHIDONIC ACID] returned an IC50 in assay [1] of 1200 nM.

Compound `CCCCC/C=C\C/C=C\C/C=C\CCCCCCC(=O)O` [DIHOMO-GAMMA-LINOLENIC ACID] displayed an IC50 in assay [1] of 1400 nM.

In turn, `CCCCCCCC/C=C\CCCCCCCCCCCC(=O)O` [ERUCIC ACID] showed an IC50 in assay [1] of more than 30000 nM.

`CCCCC/C=C\C/C=C\C/C=C\CCCCC(=O)O` [GAMOLENIC ACID] gave an IC50 in assay [1] of 270 nM.

`CC/C=C\C/C=C\C/C=C\C/C=C\C/C=C\CCCC(=O)O` [ICOSAPENT] registered an IC50 in assay [1] of 1100 nM.

For the compound `CCCCC/C=C\C/C=C\CCCCCCCC(=O)O` [LINOLEIC ACID], the IC50 in assay [1] is 1100 nM. For the same compound, the Kd in assay [2] is 4.8 nM.

`CC/C=C\C/C=C\C/C=C\CCCCCCCC(=O)O` [LINOLENIC ACID] displayed an IC50 in assay [1] of 1200 nM. The compound further had a Kd in assay [2] of 7.9 nM.

With `CCCCCCCC/C=C\CCCCCCCC(=O)O` [OLEIC ACID], the IC50 in assay [1] is 600 nM.

In turn, `CCCCCC/C=C\CCCCCCCC(=O)O` [PALMITOLEIC ACID] came in with an IC50 in assay [1] of 1700 nM.

The record behind these values is ChEMBL document CHEMBL3046324, “Molecular recognition of long chain fatty acids by peroxisome proliferator-activated receptor” (Med Chem Res, 2009).
